Test results taken from the supplement of paper PMC10307832.

Key:
Test in all cases: relative viability (nuclei count vs DMSO), 5 days (fraction); higher = more cells survive
NCI-H1648 = tested on: NCI-H1648
Method in brief: (§1)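 Values are medians from duplicate plates. Each reflects relative viability, defined as the nuclei count of treated wells over that of vehicle wells. Lung cancer cell lines in 1536-well plates were pin-tool dosed one day after seeding with one drug alone or with a fixed anchor-drug dose plus five library-drug doses (not always all listed) in √10 steps, then fixed, stained and imaged at 4× after 5 days.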

NCI-H2342 = tested on: NCI-H2342
Method in brief: as §1

NCI-H661 = tested on: NCI-H661
Method in brief: as §1

HCC-78 = tested on: HCC-78
Method in brief: as §1

NCI-H460 = tested on: NCI-H460
Method in brief: as §1

NCI-H358 = tested on: NCI-H358
Method in brief: as §1

NCI-H2009 = tested on: NCI-H2009
Method in brief: as §1

NCI-H522 = tested on: NCI-H522
Method in brief: as §1

IA-LM = tested on: IA-LM
Method in brief: as §1

Nc1ccn([C@@H]2O[C@H](CO)[C@@H](O)[C@@H]2O)c(=O)n1 [Cytarabine] + O=C(CCCCCCC(=O)Nc1ccccc1)NO [Vorinostat] (partner 1 µM) was tested, and the relative viability (NCI-H1648; first compound 0.005 µM) was 0.4, the relative viability (NCI-H1648; first compound 0.01581 µM) was 0.354 and the relative viability (NCI-H1648; first compound 0.05 µM) was 0.556. The relative viability (NCI-H1648; first compound 0.1581 µM) was 0.408, the relative viability (NCI-H1648; first compound 0.5 µM) was 0.357 and the relative viability (NCI-H2342; first compound 0.005 µM) was 0.718. The relative viability (NCI-H2342; first compound 0.01581 µM) was 0.698, the relative viability (NCI-H2342; first compound 0.05 µM) was 0.657 and the relative viability (NCI-H2342; first compound 0.1581 µM) was 0.52. It also gave a relative viability (NCI-H2342; first compound 0.5 µM) of 0.465, a relative viability (NCI-H661; first compound 0.005 µM) of 0.751 and a relative viability (NCI-H661; first compound 0.01581 µM) of 0.698. For the same compound, the relative viability (NCI-H661; first compound 0.05 µM) was 0.6, the relative viability (NCI-H661; first compound 0.1581 µM) was 0.513 and the relative viability (NCI-H661; first compound 0.5 µM) was 0.456. The relative viability (HCC-78; first compound 0.005 µM) was 0.498, the relative viability (HCC-78; first compound 0.01581 µM) was 0.471 and the relative viability (HCC-78; first compound 0.05 µM) was 0.402. For the same compound, the relative viability (HCC-78; first compound 0.1581 µM) was 0.348, the relative viability (HCC-78; first compound 0.5 µM) was 0.263 and the relative viability (NCI-H460; first compound 0.005 µM) was 0.422. For the same compound, the relative viability (NCI-H460; first compound 0.01581 µM) was 0.436, the relative viability (NCI-H460; first compound 0.05 µM) was 0.259 and the relative viability (NCI-H460; first compound 0.1581 µM) was 0.0538. For the same compound, the relative viability (NCI-H460; first compound 0.5 µM) was 0.0412, the relative viability (NCI-H358; first compound 0.005 µM) was 0.632 and the relative viability (NCI-H358; first compound 0.01581 µM) was 0.557. For the same compound, the relative viability (NCI-H358; first compound 0.05 µM) was 0.538, the relative viability (NCI-H358; first compound 0.1581 µM) was 0.178 and the relative viability (NCI-H358; first compound 0.5 µM) was 0.113. The relative viability (NCI-H2009; first compound 0.005 µM) was 0.751, the relative viability (NCI-H2009; first compound 0.01581 µM) was 0.698 and the relative viability (NCI-H2009; first compound 0.05 µM) was 0.71. For the same compound, the relative viability (NCI-H2009; first compound 0.1581 µM) was 0.52, the relative viability (NCI-H2009; first compound 0.5 µM) was 0.198 and the relative viability (NCI-H522; first compound 0.005 µM) was 0.993. It also gave a relative viability (NCI-H522; first compound 0.01581 µM) of 0.837, a relative viability (NCI-H522; first compound 0.05 µM) of 0.694 and a relative viability (NCI-H522; first compound 0.1581 µM) of 0.615. It also gave a relative viability (NCI-H522; first compound 0.5 µM) of 0.563, a relative viability (IA-LM; first compound 0.005 µM) of 0.868 and a relative viability (IA-LM; first compound 0.01581 µM) of 1.03. The relative viability (IA-LM; first compound 0.05 µM) was 1.07, the relative viability (IA-LM; first compound 0.1581 µM) was 0.518 and the relative viability (IA-LM; first compound 0.5 µM) was 0.578.
For CC(=O)O[C@@]12CO[C@@H]1C[C@H](O)[C@@]1(C)C(=O)[C@H](O)C3=C(C)[C@@H](OC(=O)[C@H](O)[C@@H](NC(=O)OC(C)(C)C)c4ccccc4)C[C@@](O)([C@@H](OC(=O)c4ccccc4)[C@H]21)C3(C)C [Docetaxel] + Nc1nc2[nH]cc(CCc3ccc(C(=O)N[C@@H](CCC(=O)O)C(=O)O)cc3)c2c(=O)[nH]1 [Pemetrexed] (partner 0.2 µM), the relative viability (NCI-H1648; first compound 0.0002 µM) was 0.73, the relative viability (NCI-H1648; first compound 0.000632 µM) was 0.758 and the relative viability (NCI-H1648; first compound 0.002 µM) was 0.386. It also gave a relative viability (NCI-H1648; first compound 0.006325 µM) of 0.186, a relative viability (NCI-H1648; first compound 0.02 µM) of 0.231 and a relative viability (NCI-H2342; first compound 0.0002 µM) of 0.731. It also gave a relative viability (NCI-H2342; first compound 0.000632 µM) of 0.745, a relative viability (NCI-H2342; first compound 0.002 µM) of 0.584 and a relative viability (NCI-H2342; first compound 0.006325 µM) of 0.495. For the same compound, the relative viability (NCI-H2342; first compound 0.02 µM) was 0.493, the relative viability (NCI-H661; first compound 0.0002 µM) was 0.947 and the relative viability (NCI-H661; first compound 0.000632 µM) was 0.944. For the same compound, the relative viability (NCI-H661; first compound 0.002 µM) was 0.799, the relative viability (NCI-H661; first compound 0.006325 µM) was 0.572 and the relative viability (NCI-H661; first compound 0.02 µM) was 0.366. It also gave a relative viability (HCC-78; first compound 0.0002 µM) of 0.892, a relative viability (HCC-78; first compound 0.000632 µM) of 0.868 and a relative viability (HCC-78; first compound 0.002 µM) of 0.88. The relative viability (HCC-78; first compound 0.006325 µM) was 0.889, the relative viability (HCC-78; first compound 0.02 µM) was 0.861 and the relative viability (NCI-H460; first compound 0.0002 µM) was 0.0551. For the same compound, the relative viability (NCI-H460; first compound 0.000632 µM) was 0.0652, the relative viability (NCI-H460; first compound 0.002 µM) was 0.0375 and the relative viability (NCI-H460; first compound 0.006325 µM) was 0.0299. It also gave a relative viability (NCI-H460; first compound 0.02 µM) of 0.021, a relative viability (NCI-H358; first compound 0.0002 µM) of 0.16 and a relative viability (NCI-H358; first compound 0.000632 µM) of 0.172. It also gave a relative viability (NCI-H358; first compound 0.002 µM) of 0.164, a relative viability (NCI-H358; first compound 0.006325 µM) of 0.155 and a relative viability (NCI-H358; first compound 0.02 µM) of 0.117. For the same compound, the relative viability (NCI-H2009; first compound 0.0002 µM) was 0.946, the relative viability (NCI-H2009; first compound 0.000632 µM) was 1.03 and the relative viability (NCI-H2009; first compound 0.002 µM) was 0.956. The relative viability (NCI-H2009; first compound 0.006325 µM) was 0.733, the relative viability (NCI-H2009; first compound 0.02 µM) was 0.27 and the relative viability (NCI-H522; first compound 0.0002 µM) was 1.06. The relative viability (NCI-H522; first compound 0.000632 µM) was 0.814, the relative viability (NCI-H522; first compound 0.002 µM) was 0.737 and the relative viability (NCI-H522; first compound 0.006325 µM) was 0.636. The relative viability (NCI-H522; first compound 0.02 µM) was 0.355.
Work on CC(=O)O[C@@]12CO[C@@H]1C[C@H](O)[C@@]1(C)C(=O)[C@H](O)C3=C(C)[C@@H](OC(=O)[C@H](O)[C@@H](NC(=O)OC(C)(C)C)c4ccccc4)C[C@@](O)([C@@H](OC(=O)c4ccccc4)[C@H]21)C3(C)C [Docetaxel] + CC(=O)Nc1cccc(-n2c(=O)n(C3CC3)c(=O)c3c(Nc4ccc(I)cc4F)n(C)c(=O)c(C)c32)c1 [Trametinib] (partner 0.02 µM) yielded a relative viability (NCI-H1648; first compound 0.0002 µM) of 0.435, a relative viability (NCI-H1648; first compound 0.000632 µM) of 0.456 and a relative viability (NCI-H1648; first compound 0.002 µM) of 0.367. The relative viability (NCI-H1648; first compound 0.006325 µM) was 0.288, the relative viability (NCI-H1648; first compound 0.02 µM) was 0.193 and the relative viability (NCI-H2342; first compound 0.0002 µM) was 0.898. The relative viability (NCI-H2342; first compound 0.000632 µM) was 0.836, the relative viability (NCI-H2342; first compound 0.002 µM) was 0.567 and the relative viability (NCI-H2342; first compound 0.006325 µM) was 0.672. The relative viability (NCI-H2342; first compound 0.02 µM) was 0.483, the relative viability (NCI-H661; first compound 0.0002 µM) was 0.53 and the relative viability (NCI-H661; first compound 0.000632 µM) was 0.611. The relative viability (NCI-H661; first compound 0.002 µM) was 0.568, the relative viability (NCI-H661; first compound 0.006325 µM) was 0.371 and the relative viability (NCI-H661; first compound 0.02 µM) was 0.347. The relative viability (HCC-78; first compound 0.0002 µM) was 0.751, the relative viability (HCC-78; first compound 0.000632 µM) was 0.73 and the relative viability (HCC-78; first compound 0.002 µM) was 0.502. For the same compound, the relative viability (HCC-78; first compound 0.006325 µM) was 0.446, the relative viability (HCC-78; first compound 0.02 µM) was 0.371 and the relative viability (NCI-H460; first compound 0.0002 µM) was 0.103. It also gave a relative viability (NCI-H460; first compound 0.000632 µM) of 0.0804, a relative viability (NCI-H460; first compound 0.002 µM) of 0.0715 and a relative viability (NCI-H460; first compound 0.006325 µM) of 0.0192. It also gave a relative viability (NCI-H460; first compound 0.02 µM) of 0.0118, a relative viability (NCI-H358; first compound 0.0002 µM) of 0.167 and a relative viability (NCI-H358; first compound 0.000632 µM) of 0.138. It also gave a relative viability (NCI-H358; first compound 0.002 µM) of 0.124, a relative viability (NCI-H358; first compound 0.006325 µM) of 0.0884 and a relative viability (NCI-H358; first compound 0.02 µM) of 0.083. It also gave a relative viability (NCI-H2009; first compound 0.0002 µM) of 0.273, a relative viability (NCI-H2009; first compound 0.000632 µM) of 0.312 and a relative viability (NCI-H2009; first compound 0.002 µM) of 0.295. For the same compound, the relative viability (NCI-H2009; first compound 0.006325 µM) was 0.233, the relative viability (NCI-H2009; first compound 0.02 µM) was 0.175 and the relative viability (NCI-H522; first compound 0.0002 µM) was 0.79. The relative viability (NCI-H522; first compound 0.000632 µM) was 0.723, the relative viability (NCI-H522; first compound 0.002 µM) was 0.676 and the relative viability (NCI-H522; first compound 0.006325 µM) was 0.42. The relative viability (NCI-H522; first compound 0.02 µM) was 0.389.
